Here are results for three compounds from ChEMBL document CHEMBL5038604, “5α-Epoxyalantolactone Inhibits Metastasis of Triple-Negative Breast Cancer Cells by Covalently Binding a Conserved Cysteine of Annexin A2” (J Med Chem, 2021).

Data set [1] is described as follows: Toxicity in BALB/c mouse xenografted with mouse 4T1 assessed as effect on body weight at 100 mg/kg, po administered once a day for 36 days. It is filed as organism-based. To be noted: in vivo, 864 h, time 36 day.
The subject of data set [2] is 4T1. The data set can be described thus: Antitumor activity against mouse 4T1 cells xenografted in BALB/c mouse assessed as tumor growth inhibition at 100 mg/kg, po administered once a day for 36 days. Type of data set: functional. To be noted: 4T1, po, 864 h, time 36 day, read-out: TGI.
Data set [3] relates to 4T1. The data set can be described thus: Antimetastatic activity against mouse 4T1 cells expressing luciferase gene implanted in BALB/c lung metastatic mouse model assessed as down regulation of E-cadherin expression in liver tissue at 100 mg/kg, po administered once a day for 20 days. Type of data set: functional, organism-based. The following applies: time 20.0 day.
The test system of data set [4] is 4T1. As to the kind of experiment: Antitumor activity against mouse 4T1 cells xenografted in BALB/c mouse assessed as decrease in liver metastasis at 100 mg/kg, po administered once a day for 36 days by H&E staining based assay. The following applies: time 36.0 day. It is filed as functional, organism-based.
Data set [5] relates to 4T1. As to the kind of experiment: Antitumor activity against mouse 4T1 cells xenografted in BALB/c mouse assessed as decrease in lung metastasis at 100 mg/kg, po administered once a day for 36 days by H&E staining based assay. Type of data set: functional, organism-based. To be noted: time 36.0 day.
Data set [6] deals with 4T1. The data set can be described thus: Antimetastatic activity against mouse 4T1 cells expressing luciferase gene implanted in BALB/c lung metastatic mouse model assessed as down regulation of ANXA2 expression in liver tissue at 100 mg/kg, po administered once a day for 20 days. Type of data set: functional, organism-based. To be noted: time 20.0 day.
The subject of data set [7] is 4T1. As to the kind of experiment: Antitumor activity against mouse 4T1 cells expressing luciferase gene implanted in BALB/c lung metastatic mouse model assessed as decrease in lung metastatic burden at 100 mg/kg, po administered once a day for 20 days by H&E staining based assay. To be noted: time 20.0 day. Type of data set: functional, organism-based.
For data set [8], the system named is 4T1. The data set can be described thus: Antitumor activity against mouse 4T1 cells expressing luciferase gene implanted in BALB/c lung metastatic mouse model assessed as decrease in lung metastasis at 100 mg/kg, po administered once a day for 20 days by H&E staining based assay. It is filed as functional, organism-based. The following applies: time 20.0 day.

The subject of data set [9] is 4T1. The data set can be described thus: Antitumor activity against mouse 4T1 cells expressing luciferase gene implanted in BALB/c lung metastatic mouse model assessed as reduction in fluorescence at 100 mg/kg, po administered once a day for 20 days by luciferase reporter gene based bioluminescence assay. It is filed as functional, organism-based. To be noted: time 20.0 day. (In a reporter assay the amount or activity of a reporter protein is the signal.)

Data set [10] concerns 4T1. As to the kind of experiment: Inhibition of cell stemness in mouse 4T1 cells assessed as reduction in size of tumor spheres incubated in tumorsphere medium for 4 days followed by compound incubation for 96 hrs by microscopic analysis. Type of data set: functional, cell-based.
Data set [11] concerns 4T1. The data set can be described thus: Antiproliferative activity against mouse 4T1 cells assessed as reduction in cell viability after 48 hrs by MTT assay. To be noted: 4T1, 48 h. Type of data set: functional, cell-based. Background: Tetrazolium dyes change colour on reduction, which living cells bring about.
In data set [12] the target is T1, Annexin A2/S100-A10 (Homo sapiens) (UniProt P07355+P60903). As to the kind of experiment: Inhibition of human ANXA2/S100A10 interaction in MDA-MB-231 cells pretreated with compound for 48 hrs by immunoprecipitation based Western blot analysis. Type of data set: cell-based. Background: In western blotting, separated proteins are transferred to a membrane and probed.

Data set [13] has as its system 4T1. The data set can be described thus: Inhibition of cell migration in mouse 4T1 cells at 5 to 10 uM incubated for 24 hrs by wound healing assay. Type of data set: functional, cell-based. To be noted: dose 5-10 µM.
For data set [14], the system named is MDA-MB-231. The data set can be described thus: Antiproliferative activity against human MDA-MB-231 cells assessed as reduction in cell viability after 48 hrs by MTT assay. It is filed as functional, cell-based. To be noted: MDA-MB-231, 48 h.
Data set [15] has as its system MDA-MB-231. As to the kind of experiment: Inhibition of colony formation in human MDA-MB-231 cells at 2.5 to 5 uM incubated for 7 days by crystal violet staining based assay. It is filed as functional, cell-based. The following applies: dose 2.5-5 µM, time 7.0 day.
The test system of data set [16] is 4T1. As to the kind of experiment: Inhibition of cell stemness in mouse 4T1 cells assessed as reduction in tumor spheres count at 10 to 20 uM incubated in tumorsphere medium for 4 days followed by compound incubation for 96 hrs by microscopic analysis. Type of data set: functional, cell-based. To be noted: dose 10-20 µM.
The subject of data set [17] is MDA-MB-231. The data set can be described thus: Inhibition of cell stemness in human MDA-MB-231 cells assessed as reduction in tumor spheres count at 10 to 20 uM incubated in tumorsphere medium for 4 days followed by compound incubation for 96 hrs by microscopic analysis. To be noted: dose 10-20 µM. Type of data set: functional, cell-based.
Data set [18] deals with MDA-MB-231. As to the kind of experiment: Antimetastatic activity against human MDA-MB-231 cells assessed as decrease in E-cadherin expression in cell membrane at 5 to 10 uM measured after 48 hrs by Western blot analysis. To be noted: dose 5-10 µM. Type of data set: functional, cell-based.
Data set [19] relates to MDA-MB-231. The data set can be described thus: Antimetastatic activity against human MDA-MB-231 cells assessed as accumulation of E-cadherin in cell cytoplasm at 5 to 10 uM measured after 48 hrs by Western blot analysis. Type of data set: functional, cell-based. The following applies: dose 5-10 µM.
For data set [20], the system named is MDA-MB-231. The data set can be described thus: Antitumor activity against human MDA-MB-231 cells assessed as reduction in cell invasion at 2.5 to 5 uM measured after 24 hrs by crystal violet staining based transwell assay. Type of data set: functional. To be noted: dose 2.5-5 µM.
Data set [21] has as its system MDA-MB-231. The data set can be described thus: Inhibition of cell migration in human MDA-MB-231 cells at 2.5 to 5 uM incubated for 36 hrs by wound healing assay. To be noted: dose 2.5-5 µM. Type of data set: functional, cell-based.
The target of data set [22] is T1, Annexin A2/S100-A10 (Homo sapiens). As to the kind of experiment: Inhibition of human ANXA2/S100A10 interaction in MDA-MB-231 cells at 5 to 10 uM measured after 48 hrs by immunocytochemistry assay. To be noted: dose 5-10 µM. It is filed as cell-based.
Data set [23] concerns 4T1. As to the kind of experiment: Antitumor activity against mouse 4T1 cells assessed as reduction in cell invasion at 2.5 to 5 uM measured after 24 hrs by crystal violet staining based transwell assay. Type of data set: functional. The following applies: dose 2.5-5 µM.
The test system of data set [24] is MDA-MB-231. As to the kind of experiment: Inhibition of cell stemness in human MDA-MB-231 cells assessed as reduction in size of tumor spheres incubated in tumorsphere medium for 4 days followed by compound incubation for 96 hrs by microscopic analysis. It is filed as functional, cell-based.
In data set [25] the test system is 4T1. As to the kind of experiment: Inhibition of colony formation in mouse 4T1 cells at 2.5 to 5 uM incubated for 7 days by crystal violet staining based assay. Type of data set: functional, cell-based. The following applies: dose 2.5-5 µM, time 7.0 day.
Data set [26] relates to 4T1. The data set can be described thus: Antitumor activity against mouse 4T1 cells expressing luciferase gene implanted in BALB/c lung metastatic mouse model assessed as reduction in fluorescence at 10 mg/kg, ip administered twice a week for 20 days by luciferase reporter gene based bioluminescence assay. To be noted: time 20.0 day. It is filed as functional, organism-based.

Calls of active or inactive are those of the source. The rule behind the calls is not given here.

T1 sequence (P07355 2-339 limits assumed): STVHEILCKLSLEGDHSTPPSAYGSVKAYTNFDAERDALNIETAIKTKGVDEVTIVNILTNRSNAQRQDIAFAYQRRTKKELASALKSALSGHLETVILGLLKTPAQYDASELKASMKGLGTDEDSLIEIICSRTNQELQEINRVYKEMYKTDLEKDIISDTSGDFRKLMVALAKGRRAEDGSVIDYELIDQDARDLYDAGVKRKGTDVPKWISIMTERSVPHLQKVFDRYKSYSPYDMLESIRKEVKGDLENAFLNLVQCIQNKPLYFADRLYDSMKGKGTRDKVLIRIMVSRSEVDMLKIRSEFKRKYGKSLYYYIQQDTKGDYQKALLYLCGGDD
T1 sequence (P60903 whole entry partner): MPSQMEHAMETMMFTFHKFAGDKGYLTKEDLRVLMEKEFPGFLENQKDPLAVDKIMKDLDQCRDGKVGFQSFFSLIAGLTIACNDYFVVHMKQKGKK

`C[C@H]1CCC[C@]2(C)C[C@H]3OC(=O)[C@@H](CN(C)C)[C@H]3[C@@H]3O[C@@]132.O=C(O)/C=C/C(=O)O`: the Activity entry in data set [1] is recorded as “Non-Toxic”. Besides, the inhibition in vivo at 100 mg/kg in [2] is 30%. For the same compound, the outcome in data set [3], in [4], in data set [5], in data set [6], in [7] and in [8] was Active. In [9], the outcome was Active.

Regarding `C=C1C(=O)O[C@@H]2C[C@@]3(C)CCC[C@H](C)[C@@]34O[C@H]4[C@H]12`, the inhibition result in data set [10] and in [24] was “Dose-Dependent Effect” each time. Also, the IC50 (commonly the concentration that gives 50% inhibition) in [11] came to 18.4 µM; in data set [14], 16 µM. The inhibition entry in [12], in data set [13], in data set [15], in data set [16], in data set [17] and in data set [21] was “Active” throughout. Besides, the inhibition result in data set [22] and in data set [25] was “Active” each time. The outcome in data set [18], in data set [19], in [20] and in data set [23] was Active.

For `CC(=O)O[C@H]1C(=O)[C@@]2(C)[C@H]([C@H](OC(=O)c3ccccc3)[C@]3(O)C[C@H](OC(=O)[C@H](O)[C@@H](NC(=O)c4ccccc4)c4ccccc4)C(C)=C1C3(C)C)[C@]1(OC(C)=O)CO[C@@H]1C[C@@H]2O`, the result in data set [26] was inactive.
